This is an account of results in PMC3657615 (Nature chemical biology, 2012).

The format of data set [1] is physicochemical.
Data set [2] deals with RSK2-CTD-mediated autophosphorylation of Ser386. The experiment in a line: pS386 RSK inhibition in MDA-MB-231 cells. The data set is classed as cell-based.
Data set [3] is described as follows: Reaction with 10 mM glutathione. The data set is classed as physicochemical.
Data set [4] has as its system RSK1/2. The experiment in a line: Cellular RSK1/2 occupancy assay using FMK-BODIPY. The settings on record: MDA-MB-231 cells. The data set is classed as cell-based.
The subject of data set [5] is RSK1/2. Briefly: Cellular RSK1/2 occupancy after inhibitor washout. The settings on record: MDA-MB-231 cells, 1 μM inhibitor. The data set is classed as cell-based.

Take `N#C/C=C/c1ccccc1` [Compound 2, cinnamonitrile]: in data set [1], the “reaction with BME, stability or reversibility of the adduct” value is “stable thioether adducts”.

`Cc1ccc(-c2c(C(=O)CF)n(CCCO)c3ncnc(N)c23)cc1` [FMK]: the “potency relative to CN-NHiPr in the autophosphorylation assay” value in data set [2] is recorded as “less potent than CN-NHiPr”. Moreover, the “t1/2 of reaction with 10 mM glutathione” value in data set [3] stood at 16 h. For the same compound, the “potency relative to CN-NHiPr in the cellular occupancy assay” value in data set [4] is listed as “less potent than CN-NHiPr”. Further, the “time to reappearance of inhibitor-free RSK1/2 after washout” value in data set [5] is “at least 48 h”.
